Experimental data reported in patent US20070219214A1, “Dual NK2/NK3-antagonists, pharmaceutical compositions comprising them, and processes for their preparation” (Solvay pharmaceuticals GmbH, priority 2006, published 2007).
Where two headings read alike, the source gives them in different places.

Assays:
NK2-receptor = target: T1, NK2-receptor (Cavia porcellus, UniProt Q64077); assay: Functional NK2-receptor antagonism in gall bladder preparations isolated from guinea pigs; settings: neurokinin A-induced contraction
T1 construct: from tissue; host or cells: whole animal (Pirbright-White guinea pigs), in vivo
T1 sequence (Q64077 1-402): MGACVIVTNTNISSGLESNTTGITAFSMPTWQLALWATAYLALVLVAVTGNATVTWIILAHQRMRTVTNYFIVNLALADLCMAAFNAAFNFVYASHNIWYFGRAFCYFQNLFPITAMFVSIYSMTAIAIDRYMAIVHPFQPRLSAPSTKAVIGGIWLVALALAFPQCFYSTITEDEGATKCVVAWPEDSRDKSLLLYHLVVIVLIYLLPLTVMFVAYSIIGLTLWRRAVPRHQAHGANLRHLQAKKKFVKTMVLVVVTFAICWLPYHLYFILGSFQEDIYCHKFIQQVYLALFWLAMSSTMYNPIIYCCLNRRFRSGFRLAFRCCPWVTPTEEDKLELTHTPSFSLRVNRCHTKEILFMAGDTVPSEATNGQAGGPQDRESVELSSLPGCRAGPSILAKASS
Method: 6. Determination of Functional NK2-Receptor Antagonism of Test Compounds in Tissue Isolated from Guinea Pigs.
The NK2 antagonistic action of test compounds was tested in gall bladder preparations isolated from guinea pigs. The preparations were kept in an oxygenated nutrient solution kept at 37° C. For measuring contraction of the gall bladder muscle, the preparations were fixed to a hook and connected to force displacement transducers. Contractions were recorded on a pen recorder.
Before (predrug) and after the administration of the test compound such contractions were measured and quantified in percent of the predrug contraction. 2-3 concentrations of the test compound were applied showing the inhibition of the receptor stimulation concentration dependently. […]

NK1-receptor = target: T2, NK1-receptor (Cavia porcellus, UniProt P30547); assay: NK1-receptor-antagonistic effectiveness in vivo, NKA-induced early hypotension in anaesthetised guinea pigs; settings: guinea pig; for ED50 iv after 1 min (cumulative), NK1 (early hypotension) / ED50 AUC1-180 min oral, NK1 (early hypotension): NKA 200 pmol/animal i.v.; for ED50 iv after 1 min (cumulative), NK1 (early hypotension): intravenous administration
T2 construct: from tissue; host or cells: whole animal (Pirbright-White guinea pigs), in vivo
From the text: 10. Determination of the NK1- and NK2-Receptor-Antagonistic Effectiveness of the Test Substances In Vivo
The NK1- and NK2-antagonistic activities of the test substances were investigated in anaesthetised guinea pigs in each case after intravenous (=i.v.) and oral (=p.o.) administration in vivo. With the present test model it is possible to detect both NK2-antagonistic effects in three different organ systems (respiratory tracts, colon and circulation) and NK1-antagonistic effects (rapid drop in blood pressure) in an animal simultaneously.
Pirbright-White guinea pigs of a body weight of 500-700 g were anaesthetised with ketamine/xylazine (67/13 mg/kg subcutaneously, initial dose, further doses administered as required). The animals were provided with an intravenous catheter in order to administer the substance and an intra-arterial catheter to measure the blood pressure. The animals were artificially ventilated via a tracheal cannula and the respiratory pressure was recorded by means of a pressure transducer. A balloon was introduced into the distal colon of the animals for manometric recording of colon motility by means of a pressure transducer. Blood pressure, heart rate, respiratory pressure and colonic pressure were measured continuously for each animal and plotted on a recorder and by means of a digital data-processing system. […] The second phase of delayed hypotension (=phase of maximum hypotension after 2-5 min.) on the other hand is mediated via NK2-receptors, since they can be blocked by specific NK2-receptor antagonists.
These ED50 values obtained from cumulative dose effect curves are plotted in Table 13.

NK3-receptor = target: T3, NK3-receptor (Meriones unguiculatus, UniProt Q2YHR0); assay: NK3-receptor-antagonistic effectiveness in vivo, senktide-induced hypothermia in gerbils; settings: gerbil; for Inhibition of temperature increase at a dose of 10 mg/kg after parenteral (ip) administration: 10 mg/kg ip; for Inhibition of temperature increase at t = 60 minutes after oral (po) administration: senktide 0.03 mg/kg sc
T3 construct: from tissue; host or cells: whole animal (male gerbils), in vivo
T3 sequence (Q2YHR0 1-454): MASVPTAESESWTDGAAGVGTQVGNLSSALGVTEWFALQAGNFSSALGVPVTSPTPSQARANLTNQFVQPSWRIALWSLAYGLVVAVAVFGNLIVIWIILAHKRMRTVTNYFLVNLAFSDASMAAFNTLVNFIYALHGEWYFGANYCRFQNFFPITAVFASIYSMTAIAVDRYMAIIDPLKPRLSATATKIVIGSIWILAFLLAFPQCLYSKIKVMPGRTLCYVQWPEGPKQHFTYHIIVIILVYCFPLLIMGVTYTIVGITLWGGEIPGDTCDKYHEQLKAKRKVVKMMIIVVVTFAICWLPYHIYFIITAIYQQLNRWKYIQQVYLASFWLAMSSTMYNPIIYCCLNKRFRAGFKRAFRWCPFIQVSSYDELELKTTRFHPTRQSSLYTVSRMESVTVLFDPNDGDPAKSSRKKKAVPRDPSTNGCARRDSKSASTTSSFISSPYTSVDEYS
Method: 8. Determination of the NK3-Receptor-Antagonistic Effectiveness of the Test Substances In Vivo (Reduction of Body Temperature in Gerbils with Senktide-Induced Hypothermia)
NK3 agonists reduce the body temperature of gerbils. The senktide-induced hypothermia can be antagonized by administering compounds with NK3-antagonistic properties. Measuring the level of hypothermia is indicative for the degree of activity of the test compounds. The own effect of the tested compound is assessed in the same experiment to exclude an additional hyperthermic effect.
Male gerbils with a body weight between 60 to 90 g are housed in groups under normal day-night rhythm and under constant environmental temperature (room temperature: 21±2° C.) with a constant relative humidity level (50±10%). Water and food are freely available. […] Antagonists: see example compounds in table X.
The animals are weighted and marked 60 minutes prior to the agonist administration. For oral (po) testings, the test compounds are administered at t=−60 minutes. For parenteral or subcutaneous (i por sc, resp.) administration, at t=−30 minutes. […] At t=15 minutes the temperature is measured orally, and registered with a 0.1° C. accuracy after a 10 second reading. This way, animals are measured every 60 sec.

human NK1-receptor = human NK1-receptor (Homo sapiens, UniProt P25103); assay: Functional cellular test, Ca2+ measurements using FLIPR for NK1 activity; assay type: cell-based; design: expressed in transfected cells; host or cells: CHO fibroblast cells; settings: for pA2 data for NK1: CHO cells, human NK1, FLIPR Ca2+, agonist substance P 10^-8 M
From the text: The NK receptor is coupled to Gq.
All steps were done under sterile conditions.

[1] = t = 30 minutes after administration
[2] = iv, read-out: ED50 iv after 1 min (cumulative), NK1 (early hypotension)

human NK1-receptor, sequence (P25103 whole entry): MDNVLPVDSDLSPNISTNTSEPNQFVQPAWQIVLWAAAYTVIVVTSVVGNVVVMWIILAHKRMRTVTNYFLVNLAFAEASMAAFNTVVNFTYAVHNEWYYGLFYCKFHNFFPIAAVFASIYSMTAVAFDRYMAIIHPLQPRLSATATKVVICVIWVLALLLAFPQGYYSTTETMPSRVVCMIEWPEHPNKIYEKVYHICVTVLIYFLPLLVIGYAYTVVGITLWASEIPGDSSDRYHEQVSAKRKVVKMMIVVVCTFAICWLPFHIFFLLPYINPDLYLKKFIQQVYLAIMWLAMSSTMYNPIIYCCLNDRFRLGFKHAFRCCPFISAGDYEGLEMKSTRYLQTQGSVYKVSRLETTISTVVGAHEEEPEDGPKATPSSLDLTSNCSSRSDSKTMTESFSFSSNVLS
T2 sequence (P30547 whole entry): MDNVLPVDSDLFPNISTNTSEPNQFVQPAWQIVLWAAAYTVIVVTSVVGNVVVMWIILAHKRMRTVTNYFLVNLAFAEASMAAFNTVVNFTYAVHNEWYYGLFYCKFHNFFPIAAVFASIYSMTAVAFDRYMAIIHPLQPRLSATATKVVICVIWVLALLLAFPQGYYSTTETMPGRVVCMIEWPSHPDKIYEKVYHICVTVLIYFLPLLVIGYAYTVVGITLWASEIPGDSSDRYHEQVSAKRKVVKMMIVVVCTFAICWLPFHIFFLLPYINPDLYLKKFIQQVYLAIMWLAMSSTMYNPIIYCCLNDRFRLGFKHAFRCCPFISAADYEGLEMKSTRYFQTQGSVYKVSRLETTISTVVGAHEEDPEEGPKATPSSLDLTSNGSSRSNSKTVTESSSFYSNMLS

Row | SMILES | pA2, NK-2-receptor-antagonistic effectiveness on the guinea pig gall bladder in vitro (NK2-receptor) | ED50 iv after 1 min (cumulative), NK1 (early hypotension) (NK1-receptor) | ED50 (NK1-receptor; [2]) | pA2 data for NK1 (human NK1-receptor) | further results
1 | CN(C)C(=O)C1(N2CCCCC2)CCN(CC[C@H](CN(C)C(=O)C2CCCCC2)c2ccc(Cl)c(Cl)c2)CC1 [compound 3] | 8.96 | >1.462 µmol/kg |  |  | 
2 | CN(C)C(=O)C1(N2CCCCC2)CCN(CC[C@H](CN(C)C(=O)c2ccc(O)cc2)c2ccc(Cl)c(Cl)c2)CC1 [compound 6, 1′-{(3S)-3-(3,4-dichlorophenyl)-4-[(4-hydroxybenzoyl)-(methyl)amino]butyl}-N,N-dimethyl-1,4′-bipiperidine-4′-carboxamide] |  |  | > 1.46 µmol/kg |  | Inhibition of temperature increase at a dose of 10 mg/kg after parenteral (ip) administration (NK3-receptor; [1]): 75%
3 | CN(C)C(=O)C1(N2CCCCC2)CCN(CC[C@H](CN(C)C(=O)c2ccccc2)c2ccc(Cl)c(Cl)c2)CC1 [compound 1] |  |  | > 0.46 µmol/kg |  | Inhibition of temperature increase at t = 60 minutes after oral (po) administration (NK3-receptor; Dose: 10 mg/kg po): 37%; Inhibition of temperature increase at t = 60 minutes after oral (po) administration (NK3-receptor; Dose: 30 mg/kg po): 54%; Kb (human NK1-receptor; read-out: pA2 data for NK1 (converted)): 7.94 nM; ED50 (NK1-receptor; read-out: ED50 AUC1-180 min oral, NK1 (early hypotension)): > 3.2 µmol/kg
4 | CN(C)C(=O)C1(N2CCCCC2)CCN(CC[C@H](CN(C)C(=O)c2cc(F)ccc2F)c2ccc(Cl)c(Cl)c2)CC1 [compound 15] |  | >1.462 µmol/kg |  | 7.2 | 
5 | CN(C)C(=O)C1(N2CCCCC2)CCN(CCC(CN(C)C(=O)c2cccnc2)c2ccc(Cl)c(Cl)c2)CC1 (stereo not drawn) [compound 19] |  |  | > 1.46 µmol/kg |  | 
6 | CN(C)C(=O)C1(N2CCCCC2)CCN(CC[C@H](CN(C)C(=O)c2ccc(F)c(F)c2)c2ccc(Cl)c(Cl)c2)CC1 [compound 14] |  | >1.462 µmol/kg |  | 7.3 | 
7 | CN(C)C(=O)C1(N2CCCCC2)CCN(CCC(CN(C)C(=O)c2ccc(Cl)nc2)c2ccc(Cl)c(Cl)c2)CC1 (stereo not drawn) [compound 18] |  |  | > 1.46 µmol/kg |  | 
8 | CN(C)C(=O)C1(N2CCCCC2)CCN(CC[C@H](CN(C)C(=O)c2ccc(F)cc2)c2ccc(Cl)c(Cl)c2)CC1 [compound 4] | 8.86 | >1.462 µmol/kg |  |  | Inhibition of temperature increase at a dose of 10 mg/kg after parenteral (ip) administration (NK3-receptor; t = 15 minutes after administration): 54%; Inhibition of temperature increase at a dose of 10 mg/kg after parenteral (ip) administration (NK3-receptor; [1]): 68%; ED50 AUC1-180 min oral, NK1 (early hypotension) (NK1-receptor; oral administration): >10 µmol/kg
9 | CN(C)C(=O)C1(N2CCCCC2)CCN(CC[C@H](CN(C)C(=O)c2ccc(F)cc2F)c2ccc(Cl)c(Cl)c2)CC1 [compound 13] |  |  |  | 7.5 | 
10 | CN(C)C(=O)C1(N2CCCCC2)CCN(CC[C@H](CN(C)C(=O)c2cc(C#N)c3ccccc3c2)c2ccc(Cl)c(Cl)c2)CC1 [compound 11] | 8.03 | 0.433 µmol/kg |  | 7.9 | ED50 AUC1-180 min oral, NK1 (early hypotension) (NK1-receptor; oral administration): 23.027 µmol/kg; NK-1-receptor-antagonistic activity on the early hypotension, in words (NK1-receptor; cumulative administration i.v., 1 min after administration): marked NK-1-receptor-antagonistic activity; oral activity as NK1 receptor antagonist, in words (NK1-receptor; oral administration): active as NK1 receptor antagonists
